Measurements reported in patent publication US20110033516A1, “METHODS AND COMPOSITIONS FOR BONE HEALING BY PERIOSTIN” (Medical University of South Carolina, priority 2009, published 2011).
Entries after “also recorded” stand apart in the source; their conditions may differ.

B1: TGFβ3: exogenous factor (transforming growth factor) tested in the 3D collagen gel migration assay (protein, UniProt P10600 301-412, looked up)
Transforming growth factor …: ALDTNYCFRNLEENCCVRPLYIDFRQDLGWKWVHEPKGYYANFCSGPCPYLRSADTTHSTVLGLYNTLNPEASASPCCVPQDLEPLTILYYVGRTPKVEQLSNMVVKSCKCS
B2: periostin: Full length recombinant mouse periostin (a.k.a. OSF-2) purchased from R&D systems; secreted 90 kDa matricellular protein (protein, UniProt Q62009 1-838, looked up)
chain: MVPLLPLYALLLLFLCDINPANANSYYDKVLAHSRIRGRDQGPNVCALQQILGTKKKYFSSCKNWYQGAICGKKTTVLYECCPGYMRMEGMKGCPAVMPIDHVYGTLGIVGATTTQHYSDVSKLREEIEGKGSYTYFAPSNEAWENLDSDIRRGLENNVNVELLNALHSHMVNKRMLTKDLKHGMVIPSMYNNLGLFINHYPNGVVTVNCARVIHGNQIATNGVVHVIDRVLTQIGTSIQDFLEAEDDLSSFRAAAITSDLLESLGRDGHFTLFAPTNEAFEKLPRGVLERIMGDKVASEALMKYHILNTLQCSEAITGGAVFETMEGNTIEIGCEGDSISINGIKMVNKKDIVTKNGVIHLIDEVLIPDSAKQVIELAGKQQTTFTDLVAQLGLASSLKPDGEYTLLAPVNNAFSDDTLSMDQRLLKLILQNHILKVKVGLSDLYNGQILETIGGKQLRVFVYRTAICIENSCMVRGSKQGRNGAIHIFREIIQPAEKSLHDKLRQDKRFSIFLSLLEAADLKDLLTQPGDWTLFAPTNDAFKGMTSEERELLIGDKNALQNIILYHLTPGVYIGKGFEPGVTNILKTTQGSKIYLKGVNETLLVNELKSKESDIMTTNGVIHVVDKLLYPADIPVGNDQLLELLNKLIKYIQIKFVRGSTFKEIPMTVYTTKIITKVVEPKIKVIQGSLQPIIKTEGPAMTKIQIEGDPDFRLIKEGETVTEVIHGEPVIKKYTKIIDGVPVEITEKQTREERIITGPEIKYTRISTGGGETGETLQKFLQKEVSKVTKFIEGGDGHLFEDEEIKRLLQGDTPAKKIPANKRVQGPRRRSREGRSQ
modifications: full-length
notes: Full length recombinant mouse periostin (a.k.a. OSF-2) purchased from R&D systems; secreted 90 kDa matricellular protein

Assays:
[1] = tested on: ROS cell line; assay: Cell adhesion assay, ROS cell line; format: cell-based, rat; conditions: assayed in triplicate, 1% BSA negative control
Experimental: FIGS. 16A-B Cell adhesion assays. (A) Each of the 55 peptides (20 mers) of periostin was assayed in triplicate by a cell adhesion assay using the ROS cell line. Collagen I and poly-L-lysine were used as positive controls, whereas 1% BSA coated wells were negative controls for non-specific binding. […] These subtle differences may be attributed to different integrin profiles of the two cell types.
The 55 peptides in Table 1 have been studied in a cell adhesion assay using the ROS cell line.
These assays will be performed as described. Briefly, titrated amounts of purified matrix protein (or peptides or fragments) ranging from 10 ng/ml to 100 μg/ml will be used to coat the wells of a 96-well dish. Poly-L-lysine (1.5 μg/ml) and 1% BSA will be used as positive and negative controls for adhesion, respectively. The wells are blocked with 1% BSA to coat any of the charged plastic surface not coated by the substrates. Finally the cells are allowed to adhere to the substrates at 37° C. for 1-2 hours depending on cell type. The cells are then gently washed to remove those that are not adherent and retain those that are adherent. Then the cells remaining are exposed to 4% PFA to fix them and they are subsequently stained with 0.25% crystal violet for 30 min. Plates are washed and air-dried. At this point the cells can be visualized and images digitally captured. The amount of stain on the cells is solubilized by 2% sodium deoxycholate for 10 min. and absorbance is measured at 540 nm wavelength. This gives quantitative data directly related to the number of adherent cells. Another assessment can be done by digitally capturing the cells in each well and analyzing their spreading by morphometric analysis.

[2] = tested on: primary fibroblasts; assay: 3D collagen gel migration assay with hanging drop aggregates; format: cell-based; conditions: aggregates of 50,000 cells/20 μl on collagen I hydrogels (1.5 mg/ml), exogenous factors
Text: FIG. 11 Periostin promotes migration of primary fibroblasts in 3D collagen gel assays. […] Pictures above the graph lines show representative images of the stimulated cultures with the cell migratory boundaries outlined.
The 3-D migration and invasion assay will use the same cells but aggregate them using a hanging drop method overnight. […] The number of cells that have migrated out from the aggregate and the distance migrated on the top of the gel are the first order parameters of migration.

[3] = tested on: fibula osteotomy in the periostin null mouse; assay: Fibula osteotomy model of bone fracture healing, X-ray analysis; format: in vivo; conditions: three weeks after fibula osteotomy, hydrogel delivery at the break point
Experimental: FIGS. 8A-C Periostin KO mice have defects in bone regeneration. X-ray analyses of bone healing three weeks after fibula osteotomies. […] (B,C) Fibula osteotomies were performed in the periostin null background and analyzed by X-ray three weeks later. In the absence of periostin there is no apparent callus formed and no fibula fusion (C).
To examine the role of periostin as a mediator of bone healing following injury, a novel in vivo murine fibula osteotomy model was developed (FIGS. 6A-B). The generation of this model system in the mouse has significant advantages over the more standard tibia and femur bone break models. Currently, the main disadvantage of the tibia and femur models is their necessity for an intermedullary stabilizer (i.e., metal rods) due to these bones being weight bearing. These rods make various analyses such microCT, MTS and histological examination either exceedingly difficult or totally impossible. Because the fibula is a non-weight bearing bone, intermedullary stabilization is not required. As such, analyses such as microCT, MTS and histology are more easily and reproducibly performed in the fibula osteotomy model. […]

[4] = tested on: Mesenchyme from periostin null mice; assay: Hanging drop culture of periostin null mesenchyme, collagen expression by immunoblotting; format: cell-based, mouse; conditions: purified periostin protein 10 μg/ml in culture medium, 7 days
Experimental: FIGS. 3A-B Periostin regulates collagen synthesis. Mesenchyme from periostin null mice was placed in hanging drop cultures and incubated with either purified periostin protein (10 μg/ml) or PBS. Mesenchyme from wild-type mice was used as control tissue. After 7 days, tissues were harvested and analyzed for periostin and collagen expression by immunoblotting. […] Actin is used for protein normalization. (B) Graphical representation of Western analyses presented in panel A obtained from densitometric analyses using NIH image software. Values obtained were compared against wild-type values (baseline) and represented as relative percent change. * denotes p<0.05.
Studies were carried out to examine the affect of periostin on fibroblast differentiation. Through these studies, it was ascertained that periostin was a crucial regulator of collagen I synthesis and maturation (fibrillogenesis) and promoted fibroblast differentiation (FIGS. 3A-B). […] Within the bone, expression of these matrix components was seen primarily in the periosteal cells. To ascertain the functional significance of periostin on bone growth, gene targeted mice were generated. These mice are viable and able to reproduce. However, significant defects have been observed in the material properties of various connective tissues. […]

[5] = tested on: rat osteoblast cells; assay: Standard wounding / scratch migration assay; format: cell-based; conditions: dishes coated with plastic, collagen, or collagen plus titrating amounts of periostin; BMP-2 titrated; up to 48 hours
Experimental: Tissue culture dishes were coated with either collagen, or collagen with titrating amounts of periostin. Cells were plated and allowed to adhere for 24 hours. A standard “wounding” or “scratch assay” was performed and measurements of cell migration into the scratch area were obtained.
The ability of periostin to promote migration of osteoblast cells in culture was ascertained utilizing a standard “wounding” assay. For this, a monolayer of rat osteoblast cells was plated on either plastic, collagen or collagen plus titrating amounts of periostin. A small scratch was made (with a P200 tip) through the middle of the monolayer and the cells were allowed to migrate into the “wounded” area for up to 48 hours.

[6] = tested on: fibroblasts; assay: Collagen deposition by fibroblasts after periostin exposure; format: cell-based; conditions: following periostin exposure/incubation

Molecule | cell adhesion (binding) to peptide [1] | other results
DQRLLKLILQNHILKVKVGL (listed as Mus musculus) [Peptide 28, murine periostin peptide] | significant binding | –
HGMVIPSMYNNLGLFINHYP (listed as Mus musculus) [Peptide 12, murine periostin peptide] | significant binding | –
HSHMVNKRMLTKDLKHGMVI (listed as Mus musculus) [Peptide 11, murine periostin peptide] | significant binding | –
HSRIRGRDQGPNVCALQQIL (listed as Mus musculus) [Peptide 2, murine periostin peptide] | significant binding | –
IGCEGDSISINGIKMVNKKD (listed as Mus musculus) [Peptide 22, murine periostin peptide] | significant binding | –
RGLENNVNVELLNALHSHMV (listed as Mus musculus) [Peptide 10, murine periostin peptide] | significant binding | –
TIGGKQLRVFVYRTAICIEN (listed as Mus musculus) [Peptide 30, murine periostin peptide] | significant binding | –
B1 | – | fold-change in area of migration [2]: promoted migration
B2 | – | bone healing (callus formation, fibula fusion) by X-ray [3]: “rescued” the null phenotype; also recorded: pronounced healing is evident; fold-change in area of migration [2]: highest degree of migration; expression of collagen Ia1 and Ia2 [4]: induces expression of collagen Ia1 and Ia2; cell migration into the scratch area [5]: highest degree of migration; also recorded: most potent stimulation of migration; collagen deposition by fibroblasts [6]: increased in a dose-dependent manner
